# Test results published in article PMC7862523 (Clinical Pharmacokinetics, 2020).
# Columns and labels:
# [1] = Association between model-derived AUC and pharmacodynamic biomarkers; format: in vivo, human
# [2] = Population pharmacokinetic model
# [3] = final population PK model, combined dataset
smiles,measurement,setting,value
CC(C)CN(C[C@@H](O)[C@H](Cc1ccccc1)NC(=O)O[C@H]1CO[C@H]2OCC[C@H]21)S(=O)(=O)c1ccc(N)cc1 [Darunavir],correlation between AUC and CD4 lymphocyte count,"[1]; Spearman, p = 0.3",no apparent correlation
same,correlation between AUC and occurrence of CNS adverse events,"[1]; any point during follow-up, W = 1613.5, p = 0.42",no apparent correlation
same,correlation between AUC and occurrence of lipodystrophy,"[1]; any point during follow-up, W = 1687, p = 0.97",no apparent correlation
same,correlation between AUC and viral load,"[1]; viral load > 40 or < 40 copies/mL, Wilcoxon W = 582, p = 0.45",no apparent correlation
same,CL higher in CYP3A5 expressors compared with non-expressors,[2]; combined dataset,19%
same,CL lower in female compared with male individuals,[2]; combined dataset,21%
same,"σadditive (SD), residual variability",[2]; final model,0.641
same,"σexponential (SD), residual variability",[2]; final model,0.281
same,SLCO3A1 G > T on V (covariate scale factor),"[2]; final model, rs8027174",0.81
same,"ωCL (SD), inter-individual variability of CL",[2]; [3],0.22
same,"ωV (SD), inter-individual variability of V",[2]; [3],0.33
same,"ωka (SD), inter-individual variability of ka",[2]; [3],0.60
same,"ka (absorption rate constant), estimate","[2]; final population PK model, combined dataset, typical value",0.68 h⁻¹
